Laboratory results published in patent US12071430B2 (The Johns Hopkins University, priority 2011, dated 2024).
In brackets after ≈: the same amount, converted by molar mass.

What was measured:
HUVEC [1] = experiment: HUVEC proliferation, [3H]-thymidine incorporation assay; assay type: cell-based; details: Homo sapiens, mean ± SD, three independent experiments, read-out: HUVEC inhibition IC50
[2] = Aqueous solubility test in 0.001N HCl; assay type: physicochemical; details: 0.001 N HCl aqueous buffer, simulated gastric fluid, kinetic from dmso stock; thermodynamic solubility, HPLC, pH=3, room temperature, 24 h
Method: (§1) The inhibitory effects of the new analogs on HUVEC proliferation were measured using a [3H]-thymidine incorporation assay. The log P values, used as an indicator of lipophilicity, were calculated using ALOGPS2.1 software. Aqueous solubility is a key physiochemical property relevant for oral absorption. We determined the solubility of each analog in 0.001 N HCl (pH=3), which represents the acidic human gastric fluid.
Aqueous solubility test. In a 1.5 mL microcentrifuge tube, 2 ul of 10 mM compound stock solution in DMSO was added to 1 mL 0.001N HCl aqueous buffer to obtain saturated solution. The resulting mixture was shaken under 600 rpm for 24 h at room temperature. Then the tube was centrifuged at 13,000 rpm for 5 min to remove the undissolved compound. 100 ul of the supernatant was injected to an Agilent 6120 LC/MS for analysis. The mass spectrometry data was collected under SIM/Scan mode. The ions of compound Exact Mass+1 and Exact Mass+23 were monitored as selected ion monitoring (SIM) for peak area integration. Solubility was calculated according to the concentration standard curve of each compound.

CYP3A4 = molecular target: T1, CYP3A4 (Homo sapiens, UniProt P08684); experiment: CYP3A4 enzyme assay (Vivid CYP3A4 Green Screening Kit); assay type: in vitro ADME; details: dose-response, FIG. 2 / FIG. 6; read-out: IC50 for CYP3A4 inhibition
T1 construct: purchased ThermoFisher P2857; host or cells: baculosomes (insect-cell microsomes, own knowledge)
Method: And CYP3A4 inhibition was initially determined using a cell-free fluorescence-based assay at a final concentration of 1 μM (Table 2).
CYP3A4 enzyme assay. CYP3A4 enzyme activity was tested using Vivid™ CYP3A4 Green Screening Kit (ThermoFisher, #P2857) using the manufacturer's protocol. Briefly, CYP3A4 baculosomes and drugs were incubated 10 min at 37° C. Then Vivid® Substrates were added and the fluorescence (ex/em:485/520) were read every 1 min for 60 minute.

HUVECs = experiment: Filipin staining of intracellular cholesterol (NPC phenotype); assay type: cell-based, human; details: HUVEC, 0.2 μM, 24 h
Description: Nieman-Pick C phenotype and mTOR inhibition. […] We thus determined whether compound 48 shared the same mechanism with itraconazole. The intracellular cholesterol was detected using the cholesterol-binding fluorescent dye filipin. […] It is known that AMPK activation leads to mTOR inhibition.
Inhibition of NPC1. NPC1 plays an essential role in cholesterol export from the endolysosome. […] At a close view (FIG. 9B), the linear pyridinyl-piperizin-1-yl-phenyl core of compound 14 nestled into the hydrophobic channel created by the transmembrane helix. The isobutyl tail faced toward the open entrance of this channel. The tetrazole moiety pointed into the closed end of the pocket and interacted with the hydroxyl group of Tyr1225 via hydrogen bonding.
Filipin staining. 2000 HUVECs were plated in chamber slide with 1 ml media and allowed to settle overnight. […] The the cells were fixed with 4% paraformaldehyde for 15 min. After washed, cells were incubated with 500 ul 50 ug/ml filipin solution for 1 hour in the dark. Then the cells were washed twice with PBS, mounted and covered with coverslip. The images were taken using confocal microscope under 360/460 nm.

HUVEC [3] = experiment: HUVEC proliferation, [3H]-thymidine incorporation assay; assay type: cell-based, human; details: HUVEC
Method: as §1
HUVEC Culture and Proliferation Assays. HUVEC (Lonza) were grown in EGM-2 bullet kit media (Lonza) and used at passage eight or lower. The H thymidine incorporation assays were conducted as previously described. Briefly, cells were seeded on 96-well plate at a concentration of 2000 cells/well and allowed to settle overnight. Drugs were added to each well in triplicate. After 24 hours, cells were treated with 1 μCi of [3H] thymidine for 6 h. Then cells were harvested and transferred to filtermats. The scintillation were counted and IC50 were determined using Prism software (version 6.0).

T1 sequence (P08684 whole entry): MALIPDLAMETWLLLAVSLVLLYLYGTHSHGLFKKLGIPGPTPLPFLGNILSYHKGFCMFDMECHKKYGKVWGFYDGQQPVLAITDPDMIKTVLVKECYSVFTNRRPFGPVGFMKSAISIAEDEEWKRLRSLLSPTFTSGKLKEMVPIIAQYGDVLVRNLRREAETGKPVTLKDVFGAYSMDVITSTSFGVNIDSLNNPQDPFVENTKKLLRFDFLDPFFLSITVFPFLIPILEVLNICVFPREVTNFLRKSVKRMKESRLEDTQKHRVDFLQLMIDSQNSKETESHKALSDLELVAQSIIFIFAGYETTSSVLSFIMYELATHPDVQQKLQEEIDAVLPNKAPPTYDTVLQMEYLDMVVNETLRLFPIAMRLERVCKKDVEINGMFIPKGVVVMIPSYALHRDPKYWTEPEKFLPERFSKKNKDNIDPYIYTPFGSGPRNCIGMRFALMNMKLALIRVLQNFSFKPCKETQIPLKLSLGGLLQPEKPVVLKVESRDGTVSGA

| solubility at 24 h [2] | IC50 (CYP3A4) | SMILES | IC50 (HUVEC [1]) | induction of NPC phenotype (cholesterol accumulation) (HUVECs) | HUVEC proliferation / anti-angiogenic potency compared to itraconazole, in words (HUVEC [3]) |
| --- | --- | --- | --- | --- | --- |
| 0.496 µg/mL (≈ 0.703 µM) |  | CCC(C)n1ncn(-c2ccc(N3CCN(c4ccc(OC[C@@H]5CO[C@@](Cn6cncn6)(c6ccc(Cl)cc6Cl)O5)cc4)CC3)cn2)c1=O (stereo partly drawn) [Compound 103, 4-(5-(4-(4-(((2S,4R)-2-((1H-1,2,4-triazol-1-yl)methyl)-2-(2,4-dichlorophenyl)-1,3-dioxolan-4-yl)methoxy)phenyl)piperazin-1-yl)pyridin-2-yl)-2-(sec-butyl)-2,4-dihydro-3H-1,2,4-triazol-3-one] | 188 ± 17.5 nM |  |  |
| 0.116 µg/mL (≈ 0.164 µM) |  | CCC(C)n1ncn(-c2ccc(N3CCN(c4ccc(OC[C@@H]5CO[C@@](Cn6cncn6)(c6ccc(Cl)cc6Cl)O5)nc4)CC3)cc2)c1=O (stereo partly drawn) [Compound 100, 4-(4-(4-(6-(((2S,4R)-2-((1H-1,2,4-triazol-1-yl)methyl)-2-(2,4-dichlorophenyl)-1,3-dioxolan-4-yl)methoxy)pyridin-3-yl)piperazin-1-yl)phenyl)-2-(sec-butyl)-2,4-dihydro-3H-1,2,4-triazol-3-one] | 687 ± 78.1 nM |  |  |
| 0.708 µg/mL (≈ 0.975 µM) | 37000 nM | CCC(C)n1ncn(-c2ccc(N3CCN(c4ccc(OC[C@@H]5CO[C@@](Cn6cnnn6)(c6ccc(Cl)cc6Cl)O5)cn4)CC3)c(F)c2)c1=O (stereo partly drawn) [Compound 15, 4-(4-(4-(5-(((2S,4R)-2-((1H-tetrazol-1-yl)methyl)-2-(2,4-dichlorophenyl)-1,3-dioxolan-4-yl)methoxy)pyridin-2-yl)piperazin-1-yl)-3-fluorophenyl)-2-(sec-butyl)-2,4-dihydro-3H-1,2,4-triazol-3-one] | 108 ± 8.6 nM | massive build-up of cholesterol |  |
| 41.3 µg/mL (≈ 58.6 µM) |  | CCC(C)n1ncn(-c2ccc(N3CCN(c4ccc(OC[C@@H]5CO[C@@](Cn6ccnc6)(c6ccc(Cl)cc6Cl)O5)cc4)CC3)cn2)c1=O (stereo partly drawn) [Compound 7, 4-(5-(4-(4-(((2S,4R)-2-((1H-imidazol-1-yl)methyl)-2-(2,4-dichlorophenyl)-1,3-dioxolan-4-yl)methoxy)phenyl)piperazin-1-yl)pyridin-2-yl)-2-(sec-butyl)-2,4-dihydro-3H-1,2,4-triazol-3-one] | 636 ± 177 nM |  |  |
| 0.114 µg/mL (≈ 0.161 µM) | 3400 nM | CCC(C)n1ncn(-c2ccc(N3CCN(c4ccc(OC[C@@H]5CO[C@@](Cn6cncn6)(c6ccc(Cl)cc6Cl)O5)cn4)CC3)cc2)c1=O (stereo partly drawn) [Compound 101, 4-(4-(4-(5-(((2S,4R)-2-((1H-1,2,4-triazol-1-yl)methyl)-2-(2,4-dichlorophenyl)-1,3-dioxolan-4-yl)methoxy)pyridin-2-yl)piperazin-1-yl)phenyl)-2-(sec-butyl)-2,4-dihydro-3H-1,2,4-triazol-3-one] | 380 ± 50.8 nM |  |  |
| 6.48 µg/mL (≈ 9.19 µM) |  | CCC(C)n1ncn(-c2ccc(N3CCN(c4ccc(OC[C@@H]5CO[C@@](Cn6ccnc6)(c6ccc(Cl)cc6Cl)O5)nc4)CC3)cc2)c1=O (stereo partly drawn) [Compound 2, 4-(4-(4-(6-(((2S,4R)-2-((1H-imidazol-1-yl)methyl)-2-(2,4-dichlorophenyl)-1,3-dioxolan-4-yl)methoxy)pyridin-3-yl)piperazin-1-yl)phenyl)-2-(sec-butyl)-2,4-dihydro-3H-1,2,4-triazol-3-one] | 468 ± 42.2 nM |  |  |
| 2.94 µg/mL (≈ 4.16 µM) | 2600 nM | CCC(C)n1ncn(-c2ccc(N3CCN(c4ccc(OC[C@@H]5CO[C@@](Cn6ccnc6)(c6ccc(Cl)cc6Cl)O5)cn4)CC3)cc2)c1=O (stereo partly drawn) [Compound 4, 4-(4-(4-(5-(((2S,4R)-2-((1H-imidazol-1-yl)methyl)-2-(2,4-dichlorophenyl)-1,3-dioxolan-4-yl)methoxy)pyridin-2-yl)piperazin-1-yl)phenyl)-2-(sec-butyl)-2,4-dihydro-3H-1,2,4-triazol-3-one] | 69.1 ± 7 nM |  | increased activities |
| 0.255 µg/mL (≈ 0.352 µM) |  | CCC(C)n1ncn(-c2ccc(N3CCN(c4ccc(OC[C@@H]5CO[C@@](Cn6cncn6)(c6ccc(Cl)cc6Cl)O5)nc4)CC3)c(F)c2)c1=O (stereo partly drawn) [Compound 105, 4-(4-(4-(6-(((2S,4R)-2-((1H-1,2,4-triazol-1-yl)methyl)-2-(2,4-dichlorophenyl)-1,3-dioxolan-4-yl)methoxy)pyridin-3-yl)piperazin-1-yl)-3-fluorophenyl)-2-(sec-butyl)-2,4-dihydro-3H-1,2,4-triazol-3-one] | 446 ± 38.3 nM |  |  |
| 0.0539 µg/mL (≈ 0.0763 µM) |  | CCC(C)n1ncn(-c2ccc(N3CCN(c4ccc(OC[C@@H]5CO[C@@](Cn6cncn6)(c6ccc(Cl)cc6Cl)O5)cc4)CC3)nc2)c1=O (stereo partly drawn) [Compound 102, 4-(6-(4-(4-(((2S,4R)-2-((1H-1,2,4-triazol-1-yl)methyl)-2-(2,4-dichlorophenyl)-1,3-dioxolan-4-yl)methoxy)phenyl)piperazin-1-yl)pyridin-3-yl)-2-(sec-butyl)-2,4-dihydro-3H-1,2,4-triazol-3-one] | 222 ± 23.1 nM |  |  |
| 17.2 µg/mL (≈ 23.7 µM) |  | CCC(C)n1ncn(-c2ccc(N3CCN(c4ccc(OC[C@@H]5CO[C@@](Cn6ccnc6)(c6ccc(Cl)cc6Cl)O5)cc4)CC3)c(F)c2)c1=O (stereo partly drawn) [Compound 1, 4-(4-(4-(4-(((2S,4R)-2-((1H-imidazol-1-yl)methyl)-2-(2,4-dichlorophenyl)-1,3-dioxolan-4-yl)methoxy)phenyl)piperazin-1-yl)-3-fluorophenyl)-2-(sec-butyl)-2,4-dihydro-3H-1,2,4-triazol-3-one] | 70.1 ± 15.4 nM |  | increased activities |
| 125 µg/mL (≈ 173 µM) |  | CCC(C)n1ncn(-c2ccc(N3CCN(c4ccc(OC[C@@H]5CO[C@@](Cn6ccnc6)(c6ccc(Cl)cc6Cl)O5)cn4)CC3)c(F)c2)c1=O (stereo partly drawn) [Compound 5, 4-(4-(4-(5-(((2S,4R)-2-((1H-imidazol-1-yl)methyl)-2-(2,4-dichlorophenyl)-1,3-dioxolan-4-yl)methoxy)pyridin-2-yl)piperazin-1-yl)-3-fluorophenyl)-2-(sec-butyl)-2,4-dihydro-3H-1,2,4-triazol-3-one] | 68 ± 15.5 nM |  | increased activities |
| 7.99 µg/mL (≈ 11.3 µM) |  | CCC(C)n1ncn(-c2ccc(N3CCN(c4ccc(OC[C@@H]5CO[C@@](Cn6ccnc6)(c6ccc(Cl)cc6Cl)O5)cc4)CC3)nc2)c1=O (stereo partly drawn) [Compound 6, 4-(6-(4-(4-(((2S,4R)-2-((1H-imidazol-1-yl)methyl)-2-(2,4-dichlorophenyl)-1,3-dioxolan-4-yl)methoxy)phenyl)piperazin-1-yl)pyridin-3-yl)-2-(sec-butyl)-2,4-dihydro-3H-1,2,4-triazol-3-one] | 98.5 ± 36.3 nM |  | increased activities |
| 0.0291 µg/mL (≈ 0.0402 µM) |  | CCC(C)n1ncn(-c2ccc(N3CCN(c4ccc(OC[C@@H]5CO[C@@](Cn6cncn6)(c6ccc(Cl)cc6Cl)O5)cc4)CC3)c(F)c2)c1=O (stereo partly drawn) [Compound 104, 4-(4-(4-(4-(((2S,4R)-2-((1H-1,2,4-triazol-1-yl)methyl)-2-(2,4-dichlorophenyl)-1,3-dioxolan-4-yl)methoxy)phenyl)piperazin-1-yl)-3-fluorophenyl)-2-(sec-butyl)-2,4-dihydro-3H-1,2,4-triazol-3-one] | 128 ± 59.7 nM |  |  |
| 0.848 µg/mL (≈ 1.17 µM) |  | CCC(C)n1ncn(-c2ccc(N3CCN(c4ccc(OC[C@@H]5CO[C@@](Cn6cncn6)(c6ccc(Cl)cc6Cl)O5)cn4)CC3)c(F)c2)c1=O (stereo partly drawn) [Compound 106, 4-(4-(4-(5-(((2S,4R)-2-((1H-1,2,4-triazol-1-yl)methyl)-2-(2,4-dichlorophenyl)-1,3-dioxolan-4-yl)methoxy)pyridin-2-yl)piperazin-1-yl)-3-fluorophenyl)-2-(sec-butyl)-2,4-dihydro-3H-1,2,4-triazol-3-one] | 173 ± 27.6 nM |  |  |
